Source: EP0158265A2, “Benzamide and anilide derivatives” (BEECHAM GROUP PLC, priority 1984, dated 1985)

Tested on: von Bezold-Jarisch reflex evoked by 5HT
Experiment: Antagonism of the von Bezold-Jarisch reflex evoked by 5HT in the anaesthetised rat
Assay type: in vivo
Conditions: anaesthetised male rat; compound given intravenously; concentration reducing the 5HT-evoked heart rate response (5-HT usually 6µg/kg i.v.) to 50% of control
Experimental: Antagonism of the von Bezold-Jarisch reflex
The compounds were evaluated for antagonism of the von Bezold-Jarisch reflex evoked by 5HT in the anaesthetised rat according to the following method: • Male rats (Beecham Pharmaceuticals), 250-350g, were anaesthetised with urethane (1.25g/kg intraperitoneally) and blood pressure and heart rate recorded as described by Fozard J.R. et al., J. Cardiovasc. Pharmacol. 2, 229-245 (1980). A submaximal dose of 5-HT (usually 6µg/kg) was given repeatedly by the intravenous route and changes in heart rate quantified. Examples were given intravenously and the concentration required to reduce the 5HT-evoked response to 50% of the control response (ED50) was then determined.

CN1C2CCC1CC(NC(=O)c1cc(Cl)cc(Cl)c1)C2 (stereo not drawn) [(2), 3,5-dichloro-N-[3β-{8-methyl-8-azabicyclo(3.2.1)octyl}] benzamide]
ED50: 0.3 mg/kg i.v.

CN1C2CCC1CC(NC(=O)c1cc(Cl)cc(Cl)c1)C2 (stereo not drawn) [(5), 3,5-Dichloro-N-[3α-{8-methyl-8-azabicyclo(3.2.1)octyl}] benzamide]
ED50: 0.009 mg/kg i.v.
